According to patent US20230331792A1, “NEW MULTI-FUNCTIONAL OLIGOPEPTIDES” (ENLITISA (SHANGHAI) PHARMACEUTICAL CO., LTD., priority 2019, published 2023):
Square brackets hold non-standard residues; d marks the D form. Ends that are not written are not given here. Dopa = N[C@@H](Cc1ccc(O)c(O)c1)C(=O)O; Hyp = O=C(O)[C@@H]1C[C@@H](O)CN1

Assays:
[1] = system: patient; experiment: Radiation stomatitis, patient case; format: in vivo, human; details: 0.5 mg/mL solution as mouthwash
Description: A patient was diagnosed with oral cancer and underwent radiation therapy.
After 3 weeks, oral mucositis developed with ulcers on the mucous membrane lining the mouth, throat and esophagus. It was very painful and the patient was not able to eat.
The patient then used Compound B solution (0.5 mg/mL; prepared as described in Example 38 above) as a mouthwash, as frequently as needed.

[2] = system: SD rats; experiment: Experimental gastric ulcer model (anhydrous alcohol); format: in vivo
Description: SPF grade SD rats were used in this experiment, with 10 rats in each group. According to an evaluation method of health food for gastric ulcer issued by Chinese State Food and Drug Administration, the protective effect of Compound B on acute gastric ulcers induced by anhydrous alcohol was observed after continuous gavage for 30 days.
Omeprazole enteric-coated capsules (20 mg/capsule; Heilongjiang Norgas Pharmaceutical Co., Ltd., China) were opened and the powder was dissolved in water to make a 2 mg/mL solution. Compound B (see Example 7 above) powder was dissolved in water to make two solutions with concentrations of 0.25 mg/mL and 0.75 mg/mL. Administration volumes were […].
All drugs were administrated as shown in Table 13 by oral gavage for 30 consecutive days, once per day. The rats had free access to water. On the 30th day, rats were fasted for 24 hours after the last drug administration. On the 31st day, 1.0 mL/rat of absolute ethanol was given by gavage to each rat in all of the experimental groups except the control group.
1 hour later, all of the rats were sacrificed and dissected to expose the intact stomach, followed by ligation of the pylorus. 10% formaldehyde solution was administered into the stomach by perfusion and fixed for 20 minutes. The stomach was dissociated after fixation and cut open along the greater curvature. The stomach contents were washed off the lining with saline to reveal the gastric mucosa.
The length and width of gastric mucosal bleeding were measured with a Vernier calliper under a stereo microscope or by the naked eye.

For “{[(Ala-Lys-Pro-Ser-Tyr-Hyp-Hyp-Thr-DOPA-Lys)2-Lys]2-Lys}2-Lys (AKPSY[Hyp][Hyp]T[Dopa]KKKK; also: branched lysine dendrimer {[(peptide)2-Lys]2-Lys}2-Lys) [Compound B]”, the “course of stomatitis during continued therapy” value [1] was “stomatitis did not worsen”, the “duration of pain relief” value [1] was “one or two hours” and the “pain of oral mucositis” value ([1]; almost immediately after application) was “pain was very much reduced”. The Damage score ([2]; 0.25 mg/mL, 0.5 mg/kg oral gavage once per day for 30 days) was 24, the Damage score ([2]; 0.75 mg/mL, 1.5 mg/kg oral gavage once per day for 30 days) was 18 and the “effect on gastric bleeding induced by alcohol” value ([2]; 0.5 and 1.5 mg/kg) was “may reduce gastric bleeding induced by alcohol”.
